Measured values from US20070161648A1, “Substituted dihydro-isoindolones useful in treating kinase disorders” (priority 2005, published 2007).

Key:
Aurora-A = target: T1, Aurora-A (Mus musculus, UniProt P97477); test: Aurora-A screening assay (33P-ATP FlashPlate kinase assay); type: biochemical, murine; settings: for inhibition at 100 µM: single test concentration 100 μM; for IC50: 10 μM ATP; for inhibition at 10 µM: single test concentration 10 μM
T1 construct: followed by the full length protein encoding the murine Aurora-A; polyhistidine (N); made in house; host or cells: Sf9 insect cells
T1 sequence (P97477 1-395): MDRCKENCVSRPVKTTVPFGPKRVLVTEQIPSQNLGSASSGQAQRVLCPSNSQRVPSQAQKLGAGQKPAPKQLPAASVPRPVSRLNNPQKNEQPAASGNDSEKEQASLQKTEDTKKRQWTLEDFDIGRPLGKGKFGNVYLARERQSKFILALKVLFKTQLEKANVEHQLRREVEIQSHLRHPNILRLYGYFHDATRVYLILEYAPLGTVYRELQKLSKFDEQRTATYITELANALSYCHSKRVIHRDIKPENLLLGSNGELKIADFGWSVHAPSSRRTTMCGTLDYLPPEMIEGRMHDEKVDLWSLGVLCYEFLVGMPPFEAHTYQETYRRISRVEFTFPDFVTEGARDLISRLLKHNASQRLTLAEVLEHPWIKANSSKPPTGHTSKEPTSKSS
Description: (§1) 70 μL of the kinase reaction mixture was dispensed into the well of a streptavidin coated FlashPlate™ (Cat. # SMP103, NEN, Boston, Mass.).
(§2) Test compound stock in 100% DMSO (1 μL) was added to the wells resulting in a final concentration of 1% DMSO in the reaction with a 100 μL final reaction volume. Each enzyme was diluted in 50 mM Tris-HCl pH=8.0, 0.1% BSA and 30 μL was added to each well to initiate the reaction. The reaction was incubated for one hour at 30° C. At the end of the 1 hr incubation, the reaction was terminated by aspirating the mixture from the plate and washing the wells twice with PBS containing 100 mM EDTA. The biotinylated peptide substrate became immobilized on the Flashplate™ and the incorporation of ^33P-γ-ATP was measured by reading the plate on a scintillation counter. Inhibition of the enzymatic activity was measured by observing a reduced amount of ^33P-γ-ATP incorporated into the immobilized peptide.
Aurora-A is a fusion protein containing a polyhistidine tag at the N terminus followed by the full length protein encoding the murine Aurora-A (Accession number GB BC014711) expressed and purified from sf9 insect cells. The assay used 400 ng of the N-terminal biotinylated peptide biotin-[…]-amide (Aurora-A) per well.
(§3) A maximum and minimum signal for the assay was determined on each plate. The percent inhibition of a test compound was calculated according to the formula: [formula]

VEGF-R2 kinase domain = target: T2, VEGF-R2 kinase domain (Rattus norvegicus, UniProt O08775); test: VEGF-R2 screening assay (33P-ATP FlashPlate kinase assay); type: biochemical; settings: for inhibition at 100 µM: single test concentration 100 μM; for IC50: 10 μM ATP
T2 construct: polyhistidine (N)
T2 sequence (O08775 786-1343): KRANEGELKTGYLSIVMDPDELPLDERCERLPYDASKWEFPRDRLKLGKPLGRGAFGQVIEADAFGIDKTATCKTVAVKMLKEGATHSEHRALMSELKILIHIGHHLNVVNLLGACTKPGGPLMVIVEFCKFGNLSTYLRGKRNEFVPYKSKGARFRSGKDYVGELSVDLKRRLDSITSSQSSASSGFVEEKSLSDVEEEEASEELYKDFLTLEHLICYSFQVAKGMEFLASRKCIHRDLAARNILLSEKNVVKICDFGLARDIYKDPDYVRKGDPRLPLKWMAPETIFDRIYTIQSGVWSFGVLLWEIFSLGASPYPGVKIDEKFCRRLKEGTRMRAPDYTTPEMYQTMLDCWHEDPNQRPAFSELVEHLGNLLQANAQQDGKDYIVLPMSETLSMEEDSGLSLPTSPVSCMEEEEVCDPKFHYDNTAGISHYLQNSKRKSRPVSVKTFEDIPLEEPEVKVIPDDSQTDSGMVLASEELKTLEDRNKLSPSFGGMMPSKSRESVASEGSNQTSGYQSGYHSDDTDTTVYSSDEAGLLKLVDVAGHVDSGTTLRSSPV
Description: as §1, §2
The assay used 150 ng of the N-terminal biotinylated peptide biotin-[…]-amide (VEGF-R2) per well.
as §3

A375 malignant melanoma = test: Cell proliferation inhibition assay (14C-thymidine incorporation), A375; type: cell-based; settings: Homo sapiens, A-375
Text: (§4) The ability of a test compound to inhibit unregulated cell proliferation may be determined by measuring incorporation of ^14C-labelled thymidine into newly synthesized DNA within cell lines derived from carcinomas originating from several tissues. Accordingly, the effect of a test compound on proliferation of cells with a variety of phenotypes may be determined.
(§5) Carcinoma cell lines used include the HeLa cervical adenocarcinoma from the American Type Culture Collection (ATCC Cat. #CCL2), A375 malignant melanoma (ATCC Cat. #CRL-1619) and HCT-116 colon carcinoma (ATCC Cat. #CCL-247).
(§6) The carcinoma cells are trypsinized and counted. The cells (3000-8000 count) are added to each well of a 96-well CytoStar tissue culture treated scintillating microplate (Amersham #RPNQO160) in complete medium (100 μL) and the plate is then incubated in complete medium for 24 hrs at 37° C. in an inert atmosphere containing 5% CO2.
(§7) Test compound (1 μL) in 100% DMSO is added to the plate test-wells with DMSO only added to control-wells. The plate is incubated in complete medium for a second 24 hr period at 37° C. in an atmosphere containing 5% CO2.
(§8) An aliquot of a solution of Methyl ^14C-thymidine (56 mC/mmol) (NEN #NEC568 or Amersham #CFA532) and complete medium (20 uL to provide 0.2 μCi/well) is then added to each well and the plate is incubated for a third 24 hr period at 37° C. in an atmosphere containing 5% CO2.
(§9) The plate contents are then discarded, the plate is washed twice with PBS (200 μL) and then PBS (200 μL) is added to each well. The plate is sealed and the degree of methyl ^14C-thymidine incorporation is quantified on a Packard Top Count.
(§10) For a series of test concentrations, the IC50 was derived by graphing percent inhibition against the log of the concentrations tested for a given compound with results shown in Table 2.

HCT-116 colon carcinoma = test: Cell proliferation inhibition assay (14C-thymidine incorporation), HCT116; type: cell-based; settings: Homo sapiens
Text: as §4, §5, §6, §7, §8, §9, §10

[1] = tested on: HeLa cervical adenocarcinoma; test: Cell proliferation inhibition assay (14C-thymidine incorporation), HeLa; type: cell-based; settings: Homo sapiens
Text: as §4, §5, §6, §7, §8, §9, §10

[2] = read-out: Aurora-A percent inhibition
[3] = read-out: VEGF-R2 percent inhibition

SMILES	inhibition at 100 µM (Aurora-A; [2]) [%]	inhibition at 100 µM (VEGF-R2 kinase domain; [3]) [%]	IC50 (Aurora-A) [µM]	IC50 (VEGF-R2 kinase domain) [µM]	IC50 (A375 malignant melanoma) [µM]	IC50 (HCT-116 colon carcinoma) [µM]	IC50 [1] [µM]	inhibition at 10 µM (Aurora-A; [2]) [%]	inhibition at 0.1 µM (Aurora-A; single test concentration 0.1 μM, read-out: Aurora-A percent inhibition) [%]	inhibition at 0.1 µM (VEGF-R2 kinase domain; single test concentration 0.1 μM, read-out: VEGF-R2 percent inhibition) [%]
COc1ccc2[nH]c(-c3ccc(N)c4c3C(=O)NC4)cc2c1 [Cpd 17, 4-amino-7-(5-methoxy-1H-indol-2-yl)-2,3-dihydro-isoindol-1-one]	–	–	0.432	0.0532	–	–	–	–	–	–
O=C1NCc2cccc(-c3cc4cc(OCCN5CCOCC5)ccc4[nH]3)c21 [Cpd 8, 7-[5-(2-morpholin-4-yl-ethoxy)-1H-indol-2-yl]-2,3-dihydro-isoindol-1-one]	–	–	0.135	0.074	2.7	5.74	5.81	–	–	–
O=C1NCc2cccc(-c3cc4cc(OCCCO)ccc4[nH]3)c21 [Cpd 5, 7-[5-(3-hydroxy-propoxy)-1H-indol-2-yl]-2,3-dihydro-isoindol-1-one]	–	–	0.1	0.03	4.4	6.47	15	–	–	–
COc1cc2c(c(-c3cc4cc(OC)ccc4[nH]3)c1)C(=O)NC2 [Cpd 6, 5-methoxy-7-(5-methoxy-1H-indol-2-yl)-2,3-dihydro-isoindol-1-one]	–	–	0.1	0.103	3.02	4.28	5.08	–	–	–
COc1ccc2[nH]c(-c3ccc(NC(C)=O)c4c3C(=O)NC4)cc2c1 [Cpd 18, N-[7-(5-methoxy-1H-indol-2-yl)-1-oxo-2,3-dihydro-1H-isoindol-4-yl]-acetamide]	64	–	–	> 100	–	–	–	–	–	–
CN1Cc2cccc(-c3ccc[nH]3)c2C1=O [Cpd 25, 2-methyl-7-(1H-pyrrol-2-yl)-2,3-dihydro-isoindol-1-one]	–	37	> 100	–	–	–	–	–	–	–
CCN1CCN(CCCOc2ccc3[nH]c(-c4cccc5c4C(=O)NC5)cc3c2)CC1 [Cpd 1, 7-{5-[3-(4-ethyl-piperazin-1-yl)-propoxy]-1H-indol-2-yl}-2,3-dihydro-isoindol-1-one]	–	–	0.044	0.014	3.9	3.85	5.31	–	–	–
O=C1NCc2cccc(-c3cc4cc(OCCCN5CCCCC5)ccc4[nH]3)c21 [Cpd 9, 7-[5-(3-piperidin-1-yl-propoxy)-1H-indol-2-yl]-2,3-dihydro-isoindol-1-one]	–	–	0.179	0.065	4.03	7.77	6.06	–	–	–
O=C1NCc2cccc(-c3cc4cc(O)ccc4[nH]3)c21 [Cpd 4, 7-(5-hydroxy-1H-indol-2-yl)-2,3-dihydro-isoindol-1-one]	–	–	0.09	0.119	4.85	6.09	3.64	–	–	–
COc1ccc2[nH]c(-c3ccc([N+](=O)[O-])c4c3C(=O)NC4)cc2c1 [Cpd 16, 7-(5-methoxy-1H-indol-2-yl)-4-nitro-2,3-dihydro-isoindol-1-one]	–	–	–	0.0229	5.23	3.09	9.42	52	–	–
O=C1NCc2cccc(-c3cc4cc(OCc5ccccc5)ccc4[nH]3)c21 [Cpd 19, 7-(5-benzyloxy-1H-indol-2-yl)-2,3-dihydro-isoindol-1-one]	–	–	21.2	11.3	–	–	–	–	–	–
COc1ccc2[nH]c(-c3cccc4c3C(=O)NC4=O)cc2c1 [Cpd 22, 4-(5-methoxy-1H-indol-2-yl)-isoindole-1,3-dione]	–	–	–	–	–	–	–	–	30	35

The next lines start with the values.

inhibition at 100 µM (Aurora-A; [2]) [%]	inhibition at 100 µM (VEGF-R2 kinase domain; [3]) [%]	IC50 (Aurora-A) [µM]	IC50 (VEGF-R2 kinase domain) [µM]	IC50 (A375 malignant melanoma) [µM]	IC50 (HCT-116 colon carcinoma) [µM]	IC50 [1] [µM]	inhibition at 10 µM (Aurora-A; [2]) [%]	inhibition at 0.1 µM (Aurora-A; single test concentration 0.1 μM, read-out: Aurora-A percent inhibition) [%]	inhibition at 0.1 µM (VEGF-R2 kinase domain; single test concentration 0.1 μM, read-out: VEGF-R2 percent inhibition) [%]	SMILES
25	46	–	–	–	–	–	–	–	–	CC(C)(C)OC(=O)n1cccc1-c1cccc2c1C(=O)NC2 [Cpd 23, 2-(3-oxo-2,3-dihydro-1H-isoindol-4-yl)-pyrrole-1-carboxylic acid tert-butyl ester]
57	65	–	–	5.31	17	20.3	–	–	–	CC(C)(C)OC(=O)n1c(-c2cccc3c2C(=O)NC3)cc2cc(OCCN3CCOCC3)ccc21 [Cpd 30, 5-(2-morpholin-4-yl-ethoxy)-2-(3-oxo-2,3-dihydro-1H-isoindol-4-yl)-indole-1-carboxylic acid tert-butyl ester]
–	–	0.205	0.142	> 10	> 10	> 10	–	–	–	COc1ccc2[nH]c(-c3cccc4c3C(=O)NC4)nc2c1 [Cpd 11, 7-(5-methoxy-1H-benzoimidazol-2-yl)-2,3-dihydro-isoindol-1-one]
–	62	9.35	–	34.4	> 10	34.8	–	–	–	CC(C)(C)OC(=O)n1c(-c2cccc3c2C(=O)NC3)cc2cc(O)ccc21 [Cpd 28, 5-hydroxy-2-(3-oxo-2,3-dihydro-1H-isoindol-4-yl)-indole-1-carboxylic acid tert-butyl ester]
–	–	0.27	1.52	> 100	> 100	43	–	–	–	COc1ccc2c(c1)cc(-c1cccc3c1C(=O)NC3=O)n2C(=O)OC(C)(C)C [Cpd 21, 2-(1,3-dioxo-2,3-dihydro-1H-isoindol-4-yl)-5-methoxy-indole-1-carboxylic acid tert-butyl ester]
40	17	–	–	39.6	39.5	44.3	–	–	–	COc1cc2c(c(-c3cc4cc(OC)ccc4n3C(=O)OC(C)(C)C)c1)C(=O)NC2 [Cpd 31, 5-Methoxy-2-(6-methoxy-3-oxo-2,3-dihydro-1H-isoindol-4-yl)-indole-1-carboxylic acid tert-butyl ester]
–	–	0.27	1.52	–	–	–	–	–	–	COc1ccc2c(c1)cc(-c1ccc([N+](=O)[O-])c3c1C(=O)NC3)n2C(=O)OC(C)(C)C [Cpd 15, 5-methoxy-2-(7-nitro-3-oxo-2,3-dihydro-1H-isoindol-4-yl)-indole-1-carboxylic acid tert-butyl ester]
–	57	–	–	> 10	> 10	55.9	48	–	–	COc1ccc2c(c1)cc(-c1cccc3c1C(=O)NC3)n2C(=O)OC(C)(C)C [Cpd 27, 5-methoxy-2-(3-oxo-2,3-dihydro-1H-isoindol-4-yl)-indole-1-carboxylic acid tert-butyl ester]
60	50	–	–	–	–	–	–	–	–	O=C1NCc2cccc(-c3c[nH]c4ccccc34)c21 [Cpd 20, 7-(1H-Indol-3-yl)-2,3-dihydro-isoindol-1-one]
61	34	–	–	–	–	–	–	–	–	CC(C)(C)OC(=O)n1c(-c2cccc3c2C(=O)NC3)cc2ccccc21 [Cpd 26, 2-(3-oxo-2,3-dihydro-1H-isoindol-4-yl)-indole-1-carboxylic acid tert-butyl ester]
